# Assay results taken from patent US6737383B1, “Herbicidal oxadiazolidines” (priority 1999, dated 2004).
# Tests used:
# [1] = test system: velvetleaf; assay: Test A velvetleaf; assay type: in vivo, Abutilon theophrasti; details: 0 to 10 scale where 0 is no effect and 10 is complete control
# In short: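 Ratings came from visual comparison with untreated plants about eleven days after treatment, scored 0 for no effect through 10 for complete control. Both soil-drench preemergence and runoff-spray postemergence applications were made at the same time.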
# [2] = test system: Amaranthus rudis (AMATA); assay: Test F preemergence, alone and in mixture with rimsulfuron, AMATA; assay type: in vivo; details: 21 days after treatment, 0-100 scale
# Procedure: (§1) Abutilon theophrasti (ABUTH), Chenopodium album (CHEAL), Amaranthus rudis (AMATA), Setaria faberii (SETFA), Panicum dichotomiflorum (PANDI), and Digitaria sanguinalis (DIGSA) were grown from seed in pots of an artificial potting mixture in a greenhouse. Compounds of the present invention were applied at 70 and 105 g ai/ha preemergence. Rimsulfuron was applied at 8.8 and 17.5 g ai/ha. Mixtures of the compounds of the present invention and rimsulfuron were also applied.
# (§2) Following application, the plants were maintained by watering as needed. A fertilizer solution of Peter's 20-20-20 (10 pounds/5 gallons of water) plus Sprint 330, a Iron Chelate micronutrient, (113.5 grams/5 gallons of water) was injected into the water with an Anderson fertilizer injection system to provide approximately 219 ppm of nitrogen with each watering. Artificial lighting was used to supplement natural light to produce a 14 hour photoperiod and: an additional one hour light period was used between 1:00 am to 2:00 am for a night interruption. Greenhouse temperatures were targeted for 27° C. in the day and 21° C. at night. At 21 days after treatment, all plants were evaluated for injury as compared to control plants that were sprayed only with non-phytotoxic solvent.
# (§3) Colby's equation was used to calculate the expected additive herbicidal effect of the mixtures of Compound 21 and the mixture partners listed above. […]
# [3] = test system: Setaria faberii (SETFA); assay: Test F preemergence, alone and in mixture with rimsulfuron, SETFA; assay type: in vivo; details: 21 days after treatment, 0-100 scale
# In short: (§4)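 Greenhouse pot plants treated preemergence with compound at 70 and 105 g ai/ha, rimsulfuron at 8.8 and 17.5 g ai/ha, or mixtures; 27° C day/21° C night, 14 hour photoperiod. Injury scored at 21 days after treatment against solvent-sprayed controls; expected additive effect of mixtures calculated by Colby's equation.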
# [4] = test system: Digitaria sanguinalis (DIGSA); assay: Test F preemergence, alone and in mixture with rimsulfuron, DIGSA; assay type: in vivo; details: 21 days after treatment, 0-100 scale
# In short: as §4
# [5] = test system: Abutilon theophrasti (ABUTH); assay: Test F preemergence, alone and in mixture with rimsulfuron, ABUTH; assay type: in vivo; details: 21 days after treatment, 0-100 scale
# Procedure: as §1, §2, §3
# [6] = Alone: Cmpd. rate 70, Rimsulfuron 0
# [7] = Alone: Cmpd. rate 105, Rimsulfuron 0
smiles,measurement,setting,value
CCN(CC)C(=O)n1oc(=O)n(-c2c(C)cccc2C)c1=O [Compound 2],"Plant response rating, Velvetleaf","[1]; Postemergence, Rate 1000 g/ha",0
same,"Plant response rating, Velvetleaf","[1]; Pre-emergence, Rate 2000 g/ha",0
"CC(C)N(C(=O)n1oc(=O)n(-c2ccc(Cl)cc2Cl)c1=O)c1ccc(F)cc1 [Compound 7, 4-(2,4-Dichlorophenyl)-N-(4-fluorophenyl)-N-(1-methylethyl)-3,5-dioxo-1,2,4-oxadiazolidine-2-carboxamide]",melting point,,57 to 60 °C
CC(C)N(C(=O)n1oc(=O)n(C2CC2)c1=O)c1ccc(F)cc1 [Compound 242],AMATA Observed,[2]; [6],20%
same,AMATA Observed,[2]; [7],55%
same,SETFA Observed,[3]; [6],60%
same,SETFA Observed,[3]; [7],75%
same,DIGSA Observed,[4]; [6],100%
same,DIGSA Observed,[4]; [7],100%
same,ABUTH Observed,[5]; [6],50%
same,ABUTH Observed,[5]; [7],70%
